Laboratory results: patent US20250129055A1, “GLUCOSIDE DERIVATIVE, AND PREPARATION METHOD THEREFOR AND APPLICATION THEREOF” (BEIJING INCREASE INNOVATIVE DRUG CO., LTD., priority 2020, published 2025)
Read-outs that look alike come from different tables or passages of the source.

Tests used:
normal ICR mice = test: Blood glucose level of normal mice after oral administration of glucose; format: in vivo; settings: for Blood glucose 0 min: 0 min (fasting, 1 h after dosing); for Blood glucose 30 min: 30 min after glucose 2.0 g/kg; for Blood glucose 60 min: 60 min after glucose 2.0 g/kg; for Blood glucose 120 min: 120 min after glucose 2.0 g/kg; for AUC of blood glucose: oral glucose 2.0 g/kg; for Reduction of the area under the curve (AUC) of blood glucose: vs. normal control group
Protocol: Test Example 2 Evaluation of the in vivo activity of the compounds of the present invention: the effect on the blood glucose level of normal mice after oral administration of glucose
ICR mice (male, 18-20 g), purchased from Beijing Vital River Laboratories Co., Ltd., were fed adaptively for 4 days, and randomly divided into 4 groups, namely normal control group, positive control group, and two groups of test compounds, with 8 mice in each group.
The aforementioned stock solutions were diluted to appropriate concentrations with double distilled water.
The mice were fasted overnight. […] After 1 h, blood was collected at 0 min (fasting), and then mice in each group were administered with glucose (2.0 g/kg) solution by gavage. Blood was collected at 30 min, 60 min, and 120 min after glucose administration. The blood glucose level was measured using glucose oxidase-peroxidase method, and the area under the blood glucose curve was calculated.
The data were expressed as mean±SD. The comparison between multiple groups was performed by one-way analysis of variance, and the comparison between two groups was performed by Dunnett's t test. Statistical graphing was performed using Graphpad Prism software.

mice = settings: mouse, in vivo, 3000 mg/kg; for Deaths D 1: 1 day; for Deaths D 2: 2 day; for Deaths D 3: 3 day; for Deaths D 4: 4 day; for Deaths D 5: 5 day; for Deaths D 6: 6 day; for Deaths D 7: 7 day; for Death rate (%): 7 days
Protocol: Test Example 5 Research on Safety of the Compounds of the Present Invention
The compounds of the present invention were subjected to the following acute toxicity studies in mice.
The symptoms of toxicity reaction and death time were recorded.
On the day before administration, the animals were fasted but provided with water for 17 h. Each test drug group was administered with the corresponding test drug once by gavage, and the blank control group was administered with the same dose of vehicle once by gavage.

[1] = system: spontaneous type 2 diabetes mellitus db/db mice; test: Pharmacodynamic effect on spontaneous type 2 diabetes mellitus db/db mice; format: in vivo; settings: for AUC of blood glucose: 0-24 h; for Concentration of blood glucose 0 h / Concentration of blood glucose 1 h / Concentration of blood glucose 2 h / Concentration of blood glucose 4 h / Concentration of blood glucose 6 h / Concentration of blood glucose 8 h / Concentration of blood glucose 24 h: fasting; for Concentration of blood glucose 0 h: 0 h before administration; for HbA1c: 28th day; for Random blood glucose, the 22nd day (title: 28th day): column head 22nd day
Protocol: Test example 4 Pharmacodynamic effect of the compounds of the present invention on spontaneous type 2 diabetes mellitus db/db mice
Spontaneous type 2 diabetes mellitus db/db mice and the normal control db/m mice (male, 5-6 weeks old) were used. The db/db mice were randomly divide into […] based on random blood glucose, fasting blood glucose, percentage of blood glucose reduction at 40 min, blood triglycerides, total blood cholesterol, and body weight, which were model group (con), positive control group and three groups of test compound with different doses (n=10).
Mice were administered with drugs by gavage.
The mice were fasted for 2 h, and then the 0 h (fasting) blood samples were collected. Then the mice in each group were administered with drugs by gavage, and blood samples were collected at 1 h, 2 h, 4 h, 6 h, 8 h and 24 h after administration. The blood glucose level was measured using glucose oxidase-peroxidase method, and the area under the blood glucose curve was calculated. Moreover, urine samples were collected 2 h and 4 h after administration to determine the concentration of urine glucose.
On the 15th day of continuous administration, before the mice were fasted, blood samples were collected to measure the random blood glucose. Then the mice were fasted and administered with the compounds, and after 2 h, blood samples were collected to measure the fasting blood glucose. […]
The data were expressed as mean±SEM (n=10). The comparison between multiple groups was performed by one-way analysis of variance, and the comparison between two groups was performed by Dunnett's t test. Statistical graphing was performed using Graphpad Prism software.

[2] = 0.5 mg/kg single administration
[3] = 1.0 mg/kg single administration
[4] = 2.0 mg/kg single administration
[5] = 22nd day of continuous administration, 0.5, 1.0 and 2.0 mg/kg

`CS[C@H]1O[C@@H](c2ccc(C)c(Cc3ccc4c(c3)OCCO4)c2)[C@H](O)[C@@H](O)[C@@H]1O` (stereo in doubt) [Compound 2, 2-[3-(2,3-dihydro-1,4-benzodioxin-6-ylmethyl)-4-methylphenyl]-6-(methylthio)oxane-3,4,5-triol] was tested, and the “Blood glucose 0 min” value (normal ICR mice; 2 mg/kg by gavage) was 75.9 ± 6.7 mg/dL, the “Blood glucose 30 min” value (normal ICR mice; 2 mg/kg by gavage) was 207.8 ± 13.6 mg/dL and the “Blood glucose 60 min” value (normal ICR mice; 2 mg/kg by gavage) was 119.3 ± 12.5 mg/dL. The “Blood glucose 120 min” value (normal ICR mice; 2 mg/kg by gavage) was 73.0 ± 11.4 mg/dL, the “AUC of blood glucose” value (normal ICR mice; 2 mg/kg by gavage) was 248.8 ± 18.0 mg·h/dL and the “Reduction of the area under the curve (AUC) of blood glucose” value (normal ICR mice; 2 mg/kg) was 37.4%. The “Blood glucose 0 min” value (normal ICR mice; 4 mg/kg by gavage) was 63.6 ± 8.3 mg/dL, the “Blood glucose 30 min” value (normal ICR mice; 4 mg/kg by gavage) was 189.5 ± 14.3 mg/dL and the “Blood glucose 60 min” value (normal ICR mice; 4 mg/kg by gavage) was 103.2 ± 5.1 mg/dL. The “Blood glucose 120 min” value (normal ICR mice; 4 mg/kg by gavage) was 78.2 ± 13.9 mg/dL, the “AUC of blood glucose” value (normal ICR mice; 4 mg/kg by gavage) was 227.1 ± 13.1 mg·h/dL and the “Reduction of the area under the curve (AUC) of blood glucose” value (normal ICR mice; 4 mg/kg) was 42.9%. For the same compound, the “Deaths D 1” value (mice; female) was 0, the “Deaths D 2” value (mice; female) was 0 and the “Deaths D 3” value (mice; female) was 0. The “Deaths D 4” value (mice; female) was 0, the “Deaths D 5” value (mice; female) was 0 and the “Deaths D 6” value (mice; female) was 0. The “Deaths D 7” value (mice; female) was 0, the “Death rate (%)” value (mice; female) was 0% and the “Deaths D 1” value (mice; male) was 0. The “Deaths D 2” value (mice; male) was 0, the “Deaths D 3” value (mice; male) was 0 and the “Deaths D 4” value (mice; male) was 1. The “Deaths D 5” value (mice; male) was 0, the “Deaths D 6” value (mice; male) was 1 and the “Deaths D 7” value (mice; male) was 0. The “Death rate (%)” value (mice; male) was 40%, the “AUC of blood glucose” value [1, 2] was 7046 ± 253.0 mg·h/dL and the “Concentration of blood glucose 0 h” value [1, 2] was 486.3 ± 32.9 mg/dL. The “Concentration of blood glucose 1 h” value [1, 2] was 386.8 ± 22.3 mg/dL, the “Concentration of blood glucose 2 h” value [1, 2] was 362.7 ± 27.2 mg/dL and the “Concentration of blood glucose 4 h” value [1, 2] was 252.3 ± 9.7 mg/dL. For the same compound, the “Concentration of blood glucose 6 h” value [1, 2] was 169.3 ± 4.4 mg/dL, the “Concentration of blood glucose 8 h” value [1, 2] was 134.2 ± 4.6 mg/dL and the “Concentration of blood glucose 24 h” value [1, 2] was 477.7 ± 25.9 mg/dL. The “Fasting blood glucose, the 15th day” value ([1]; 0.5 mg/kg) was 185.0 ± 13.6 mg/dL, the “Random blood glucose, the 15th day” value ([1]; 0.5 mg/kg) was 307.9 ± 18.4 mg/dL and the “Fasting blood glucose, the 22nd day” value ([1]; 0.5 mg/kg) was 193.8 ± 14.7 mg/dL. The HbA1c ([1]; 0.5 mg/kg) was 4.7 ± 0.3 %, the “Random blood glucose, the 22nd day (title: 28th day)” value (“Random blood glucose, the 22nd day” for short) ([1]; 0.5 mg/kg) was 272.4 ± 16.5 mg/dL and the “AUC of blood glucose” value [1, 3] was 6952 ± 295.8 mg·h/dL. The “Concentration of blood glucose 0 h” value [1, 3] was 552.2 ± 24.2 mg/dL, the “Concentration of blood glucose 1 h” value [1, 3] was 412.5 ± 13.1 mg/dL and the “Concentration of blood glucose 2 h” value [1, 3] was 362.3 ± 23.7 mg/dL. The “Concentration of blood glucose 4 h” value [1, 3] was 256.0 ± 10.1 mg/dL, the “Concentration of blood glucose 6 h” value [1, 3] was 161.8 ± 6.9 mg/dL and the “Concentration of blood glucose 8 h” value [1, 3] was 124.3 ± 5.8 mg/dL. The “Concentration of blood glucose 24 h” value [1, 3] was 470.7 ± 25.6 mg/dL, the “Fasting blood glucose, the 15th day” value ([1]; 1.0 mg/kg) was 197.9 ± 11.2 mg/dL and the “Random blood glucose, the 15th day” value ([1]; 1.0 mg/kg) was 322.7 ± 11.1 mg/dL. The “Fasting blood glucose, the 22nd day” value ([1]; 1.0 mg/kg) was 204.1 ± 12.2 mg/dL, the HbA1c ([1]; 1.0 mg/kg) was 4.8 ± 0.2 % and the “Random blood glucose, the 22nd day” value ([1]; 1.0 mg/kg) was 258.4 ± 12.8 mg/dL. For the same compound, the “AUC of blood glucose” value [1, 4] was 6507 ± 269.6 mg·h/dL, the “Concentration of blood glucose 0 h” value [1, 4] was 519.3 ± 30.7 mg/dL and the “Concentration of blood glucose 1 h” value [1, 4] was 377.0 ± 9.0 mg/dL. The “Concentration of blood glucose 2 h” value [1, 4] was 309.7 ± 13.1 mg/dL, the “Concentration of blood glucose 4 h” value [1, 4] was 259.0 ± 14.9 mg/dL and the “Concentration of blood glucose 6 h” value [1, 4] was 153.3 ± 10.7 mg/dL. For the same compound, the “Concentration of blood glucose 8 h” value [1, 4] was 129.5 ± 12.8 mg/dL, the “Concentration of blood glucose 24 h” value [1, 4] was 427.0 ± 20.2 mg/dL and the “Fasting blood glucose, the 15th day” value ([1]; 2.0 mg/kg) was 162.7 ± 12.1 mg/dL. The “Random blood glucose, the 15th day” value ([1]; 2.0 mg/kg) was 240.4 ± 16.4 mg/dL, the “Fasting blood glucose, the 22nd day” value ([1]; 2.0 mg/kg) was 159.5 ± 8.5 mg/dL and the HbA1c ([1]; 2.0 mg/kg) was 4.0 ± 0.2 %. For the same compound, the “Random blood glucose, the 22nd day” value ([1]; 2.0 mg/kg) was 194.7 ± 14.0 mg/dL, the “Blood triglycerides (TG) level” value [1, 5] was “significantly lower” and the “Concentration of blood cholesterol” value [1, 5] was “no effect”. For the same compound, the “Concentration of urine glucose” value ([1]; 2 h after single administration, 0.5, 1.0 and 2.0 mg/kg) was “increased”, the “Concentration of urine glucose” value ([1]; 4 h after single administration, 0.5, 1.0 and 2.0 mg/kg) was “not increased” and the “Effect on body weight, food intake and water intake” value ([1]; continuous administration, 0.5, 1.0 and 2.0 mg/kg) was “no significant effect”. The “Duration of blood glucose lowering” value ([1]; single administration, 0.5, 1.0 and 2.0 mg/kg) was “up to 24 h”.
